# Test results as given in publication PMC3797685, “Enhanced Production, Purification, Characterization and Mechanism of Action of Salivaricin 9 Lantibiotic Produced by Streptococcus salivarius NU10” (PLoS ONE, 2013).
# Starred links: 1 amine or outer side, 2 acyl side, 3 side chain; linkers in the order of their positions; H or OH if unused. Positions of bridges follow the written chain, without caps; N, C: chain ends. Non-standard residues stand in square brackets, D forms with d. Residues, ends and D or L forms follow the SMILES beside them. dAbu(3S-yl) = C[C@@H]([C@@H](N[*:1])C(=O)[*:2])[*:3]; Dhb = C/C=C(\N)C(=O)O
# Legend:
# [1] = tested on: S. salivarius strain NU10; assay: Salivaricin induction assay, strain NU10; assay type: cell-based, Streptococcus salivarius; settings: 0.05 ml test sample (titre 4 AU/ml) added to washed cells in M17YESUCa, 18 h anaerobic; well diffusion assay, induced vs control tube
# Source text: (§1) The bacteriocin-inducing activities present in crude extracts of S. salivarius strains NU10, YU10, K12 and in FPLC-purified salivaricin 9 peptide fractions having anti-Micrococcus luteus activity was investigated in this study. The crude extracts of producer cells designated as BLIS-NU10, BLIS-YU10 and BLIS-K12 were isolated by acidic methanol extraction of the producer cells as described previously. These crude BLIS extracts had the potential to contain at least two lantibiotics on the basis of PCR assessment for their content of lantibiotic structural genes. Strains NU10 and YU10 had the structural genes for salivaricin 9 and salivaricin A and strain K12 had salivaricin A and salivaricin B structural genes. […] Colonies from an 18 h culture of each S. salivarius strain NU10, YU10 and K12 grown anaerobically on BACa agar was used to inoculate 10 ml of M17YESUCa broth and incubated again under the same conditions. The cells were then collected by centrifugation at 18000 x g for 5 min and washed three times in saline buffer to reduce the levels of cell surface-associated lantibiotic before suspending in 10 ml of the same buffer. […] Induction of salivaricin 9 or salivaricin A production was recorded as inhibitory zones surrounding samples from the induced tubes but not the control tubes. […]
# [2] = tested on: S. salivarius strain YU10; assay: Salivaricin induction assay, strain YU10; assay type: cell-based, Streptococcus salivarius; settings: 0.05 ml test sample (titre 4 AU/ml) added to washed cells in M17YESUCa, 18 h anaerobic; well diffusion assay, induced vs control tube
# Source text: as §1
# S. salivarius strain K12 = assay: Salivaricin induction assay, strain K12; assay type: cell-based, Streptococcus salivarius; settings: 0.05 ml test sample (titre 4 AU/ml) added to washed cells in M17YESUCa, 18 h anaerobic; well diffusion assay, induced vs control tube
# Source text: as §1
# [3] = tested on: Lactococcus lactis strain ATCC11454; assay: Induction assay, nisin-producing strain ATCC11454; assay type: cell-based; settings: 0.05 ml test sample, 18 h, well diffusion assay
# [4] = tested on: Actinomyces naeslundii TG2; assay: Minimal inhibitory concentration (NCCLS); assay type: cell-based; set-up: key: ++++: inhibition zone >12 mm; +++: inhibition zone = 10 mm; ++: inhibition zone < 5 mm; -: No inhibition; settings: pure salivaricin 9, NCCLS method
# Experimental: (§2) An induced culture of S. salivarius NU10 was centrifuged at 8000 x g to pellet the cells. The cell free supernatant (CFS) was filtered through 0.2 µm sterilized cellulose membrane (Millipore) to ensure that all cell debris was removed. The filtered crude bacteriocin preparation was passed through 100 ml XAD-16 particles (Sigma) packed in a glass column. The column was washed with 400 ml of distilled water followed by 200 ml of 70% methanol before the active fraction was eluted using 200 ml of 95% methanol (adjusted to pH 2) at a flow rate of 15 ml/min. The methanol was removed using a rotary evaporator and the resulting peptide preparation was lyophilized and stored at -20°C. The lyophilized peptide pellets were dissolved in 20 mM sodium phosphate pH 5.8 (binding buffer). Then the sample was injected into a fast protein liquid chromatography (FPLC) system (ÄKTA Purifier™) using HiTrap SP FF 5ml strong cation exchanger column (GE Healthcare) equilibrated with the same buffer at a flow rate of 1 ml/min. Then the column was washed with 10X column volume of the binding buffer before salivaricin 9 was eluted using a linear gradient of 0 to 1M NaCl in 20 mM sodium phosphate buffer at pH 5.8 (Figure 4). All fractions were tested for inhibitory activity using Micrococcus luteus as the indicator. MIC values of pure salivaricin 9 against a set of bacterial indicator strains were determined by following the National Committee for Clinical Laboratory Standards (NCCLS) (Table 3).
# [5] = tested on: Bacillus cereus ATCC14579; assay: Minimal inhibitory concentration (NCCLS); assay type: cell-based; set-up: key: ++++: inhibition zone >12 mm; +++: inhibition zone = 10 mm; ++: inhibition zone < 5 mm; -: No inhibition; settings: pure salivaricin 9, NCCLS method
# Experimental: as §2
# [6] = tested on: Haemophilus parainfluenza TONEJ11; assay: Minimal inhibitory concentration (NCCLS); assay type: cell-based; set-up: key: ++++: inhibition zone >12 mm; +++: inhibition zone = 10 mm; ++: inhibition zone < 5 mm; -: No inhibition; settings: pure salivaricin 9, NCCLS method
# Experimental: as §2
# [7] = tested on: Staphylococcus aureus RF122; assay: Minimal inhibitory concentration (NCCLS); assay type: cell-based; set-up: key: ++++: inhibition zone >12 mm; +++: inhibition zone = 10 mm; ++: inhibition zone < 5 mm; -: No inhibition; settings: pure salivaricin 9, NCCLS method
# Experimental: as §2
# [8] = tested on: Streptococcus mutans GEJ11; assay: Minimal inhibitory concentration (NCCLS); assay type: cell-based; set-up: key: ++++: inhibition zone >12 mm; +++: inhibition zone = 10 mm; ++: inhibition zone < 5 mm; -: No inhibition; settings: pure salivaricin 9, NCCLS method
# Experimental: as §2
# [9] = tested on: Streptococcus pyogenes ATCC12344; assay: Minimal inhibitory concentration (NCCLS); assay type: cell-based; settings: pure salivaricin 9, NCCLS method
# Experimental: as §2, with “All fractions were tested for inhibitory activity using Micrococcus luteus as the indicator.” left out
# Micrococcus luteus [10] = assay: Mode of action, addition to growing culture (OD600); assay type: cell-based; settings: added to different growth phases of Micrococcus luteus culture
# Experimental: When added to different growth phases of Micrococcus luteus culture, salivaricin 9 induced cell lysis.
# Figure 7 Bactericidal mode of action of salivaricin 9. Salivaricin 9 was added to different phases of bacterial growth. […] The sensitive bacteria Micrococcus luteus lost the ability to grow again after salivaricin 9 was added.
# [11] = tested on: Micrococcus luteus ATCC10240; assay: Flow cytometry analysis of membrane disruption (propidium iodide); assay type: cell-based; settings: PI 25 µM, 30 minutes at 37°C
# Experimental: For membrane integrity assay using the dye propidium iodide (PI), cultures of Micrococcus luteus ATCC10240 were grown over night at 37°C in THB supplemented with 0.5% glucose (THBG) and then diluted with fresh THBG to an OD600 of 0.1. The cells were centrifuged at 4000 x g for 5 minutes at 4°C and washed twice with washing buffer (2 mM HEPES + 2 mM glucose) before re-suspending in the same buffer and adjusting to OD600 0.1. The cells were exposed to salivaricin 9 (12, 20 µg/ml) or nisin (20 µg/ml) (Sigma) and PI (final concentration 25 µM) before incubating for 30 minutes at 37°C. Nuclease-Free Water (Promega, USA) was added instead of antibiotic and served as a negative control. Samples were analyzed using BD FACSCanto^TM II flow cytometer using excitation at 488 nm and with the standard filter setup. Each sample was examined in triplicate and the geometric mean fluorescence intensity (MFI) of gated cell populations was calculated (Figure 9).
# Micrococcus luteus [12] = assay: Heat stability (residual inhibitory activity); assay type: physicochemical; settings: for Inhibition zone after heat treatment: indicator Micrococcus luteus, titre 800 AU/ml
# Experimental: (§3) Heat stability was studied by exposing pure salivaricin 9 to different temperatures for one hour after which the sample was centrifuged and the supernatant tested for inhibitory activity. The stability of the peptide at different pH values was also evaluated and tested for inhibitory activity. Specific enzymatic effects of denaturation on salivaricin 9 were tested using two wells of 6mm diameter each separated by a distance of 4 mm in CAB plates. One well was filled with 50µl of pure salivaricin 9 while the other was filled with 50µl of the tested enzyme. The plate was incubated at 50°C for 2 hours and then incubated at 37°C overnight before seeding the indicator strain onto the agar surface using a cotton swab. Then the plate was re-incubated at 37°C for 18 hours and the zones of inhibitions that appeared indicated residual activity of salivaricin 9 while absence of inhibition zones indicated the denaturation of the antimicrobial peptide by the applied enzymes namely proteinase K, peptidase, lyticase and catalase. The stability of salivaricin 9 to treatment with the chemicals EDTA, SDS, urea, NaCl and β-mercaptoethanol was examined by adding 1% of these chemicals to the bacteriocin followed by incubation for two hours at RT before the samples were centrifuged and the supernatant tested as mentioned above. If the chemical was a solvent such as β-mercaptoethanol, then the solvent was evaporated before testing for antimicrobial activity (Table 4).
# Micrococcus luteus [13] = assay: pH stability (residual inhibitory activity); assay type: physicochemical; settings: for Inhibition zone after pH exposure: indicator Micrococcus luteus, titre 800 AU/ml
# Experimental: as §3
# Proteinase = assay: Enzyme stability (residual inhibitory activity); assay type: physicochemical; settings: Proteinase 1 mg.ml^-1; adjacent wells, 50 µl each; 50°C 2 hours then 37°C overnight; indicator Micrococcus luteus; titre 800 AU/ml
# Experimental: (§4) Specific enzymatic effects of denaturation on salivaricin 9 were tested using two wells of 6mm diameter each separated by a distance of 4 mm in CAB plates. One well was filled with 50µl of pure salivaricin 9 while the other was filled with 50µl of the tested enzyme. The plate was incubated at 50°C for 2 hours and then incubated at 37°C overnight before seeding the indicator strain onto the agar surface using a cotton swab. Then the plate was re-incubated at 37°C for 18 hours and the zones of inhibitions that appeared indicated residual activity of salivaricin 9 while absence of inhibition zones indicated the denaturation of the antimicrobial peptide by the applied enzymes namely proteinase K, peptidase, lyticase and catalase.
# Proteinase K = Proteinase K (Parengyodontium album, UniProt P06873); assay: Enzyme stability (residual inhibitory activity)
# Proteinase K, sequence (P06873 106-384): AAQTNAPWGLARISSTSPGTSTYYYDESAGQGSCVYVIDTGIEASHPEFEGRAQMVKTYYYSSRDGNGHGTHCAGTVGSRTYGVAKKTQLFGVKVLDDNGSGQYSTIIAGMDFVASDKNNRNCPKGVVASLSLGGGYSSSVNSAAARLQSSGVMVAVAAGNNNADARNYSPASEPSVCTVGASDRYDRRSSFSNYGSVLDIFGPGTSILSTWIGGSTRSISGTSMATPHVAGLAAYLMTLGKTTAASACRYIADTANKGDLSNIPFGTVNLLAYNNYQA
# Experimental: (§5) Heat stability was studied by exposing pure salivaricin 9 to different temperatures for one hour after which the sample was centrifuged and the supernatant tested for inhibitory activity. The stability of the peptide at different pH values was also evaluated and tested for inhibitory activity. Specific enzymatic effects of denaturation on salivaricin 9 were tested using two wells of 6mm diameter each separated by a distance of 4 mm in CAB plates. One well was filled with 50µl of pure salivaricin 9 while the other was filled with 50µl of the tested enzyme. The plate was incubated at 50°C for 2 hours and then incubated at 37°C overnight before seeding the indicator strain onto the agar surface using a cotton swab. Then the plate was re-incubated at 37°C for 18 hours and the zones of inhibitions that appeared indicated residual activity of salivaricin 9 while absence of inhibition zones indicated the denaturation of the antimicrobial peptide by the applied enzymes namely proteinase K, peptidase, lyticase and catalase. The stability of salivaricin 9 to treatment with the chemicals EDTA, SDS, urea, NaCl and β-mercaptoethanol was examined by adding 1% of these chemicals to the bacteriocin followed by incubation for two hours at RT before the samples were centrifuged and the supernatant tested as mentioned above. […]
# Lyticase = assay: Enzyme stability (residual inhibitory activity)
# Experimental: as §4
# Catalase = assay: Enzyme stability (residual inhibitory activity)
# Experimental: as §4
# Micrococcus luteus [14] = assay: Stability to detergents / chemicals (residual inhibitory activity); assay type: physicochemical; settings: two hours at RT, indicator Micrococcus luteus, titre 800 AU/ml
# Experimental: as §3
# Experimental for Peptidase: as §5
molecule,measurement,setting,value
"C/C=C1\NC(=O)[C@H](Cc2c[nH]c3ccccc23)NC(=O)[C@@H]2NC(=O)[C@H](C)NC(=O)[C@H](CC(C)C)NC(=O)[C@H](CC(N)=O)NC(=O)[C@@H]3CS[C@@H](C)[C@@H](NC(=O)[C@H](CC(C)C)NC(=O)[C@@H](NC(=O)[C@@H](NC(=O)CNC(=O)[C@H](CC(N)=O)NC(=O)CN)C(C)C)C(C)C)C(=O)N[C@@H](CC(C)C)C(=O)N[C@@H](C(=O)N[C@@H](Cc4c[nH]cn4)C(=O)N[C@@H](CCC(=O)O)C(=O)N3)[C@H](C)SC[C@H](NC(=O)[C@H](CCCCN)NC(=O)[C@H](CC(C)C)NC(=O)[C@H](CCCCN)NC(=O)[C@H](CCCCN)NC1=O)C(=O)N[C@H](C(=O)O)CS[C@H]2C [Salivaricin 9] (H-GNGVVL[dAbu(3S-yl)]L[dAbu(3S-yl)]HECNLA[dAbu(3S-yl)]W[Dhb]KKLKCC-OH; thioether 7-12, 9-23, 16-24; N-terminus and C-terminus assumed)",Preparation induces inhibitor production in NU10,[1],Yes
same,Preparation induces inhibitor production in YU10,[2],Yes
same,Preparation induces inhibitor production in K12,S. salivarius strain K12,No
same,Preparation induces inhibitor production in ATCC11454,[3],No
same,MIC of salivaricin 9,[4],-
same,MIC of salivaricin 9,[5],-
same,MIC of salivaricin 9,[6],-
same,MIC of salivaricin 9,[7],-
same,MIC of salivaricin 9,[8],-
same,MIC of salivaricin 9,[9],32 µg/mL
same,Mode of action (OD600 after addition to culture),Micrococcus luteus [10],bactericidal and bacteriolytic
same,"Propidium iodide uptake, geometric mean fluorescence intensity (MFI)",[11]; 4 µg/ml (MIC),did not show significant increase in the MFI
same,"Propidium iodide uptake, geometric mean fluorescence intensity (MFI)","[11]; 12 µg/ml (3-fold MIC), triplicate",significant MFI increments
same,"Propidium iodide uptake, geometric mean fluorescence intensity (MFI)","[11]; 20 µg/ml, triplicate",significant MFI increments
same,Inhibition zone after heat treatment,"Micrococcus luteus [12]; 4, 20, 30, 37, 40, 50, 60, 70, 80 °C for 1 hour",++++ (inhibition zone >20 mm)
same,Inhibition zone after heat treatment,"Micrococcus luteus [12]; 90, 100 °C for 30 min",+++ (inhibition zone =20 mm)
same,Biological stability at high temperature (in words),Micrococcus luteus [12]; 90-100°C for 30 minutes,retained biological stability
same,Inhibition zone after heat treatment,Micrococcus luteus [12]; 121 °C for 20 min,-
same,Inhibition zone after pH exposure,Micrococcus luteus [13]; pH 2- 7,++++ (inhibition zone >20 mm)
same,Inhibition zone after pH exposure,Micrococcus luteus [13]; pH 8-10,+++ (inhibition zone =20 mm)
same,Inhibition zone after pH exposure,Micrococcus luteus [13]; pH 11-12,-
same,Antimicrobial activity after pH exposure (in words),Micrococcus luteus [13]; pH range of 2 to 10,retained
same,Inhibition zone after enzyme treatment,Proteinase,-
same,Inhibition zone after enzyme treatment,"Proteinase K; Proteinase K 1 mg.ml^-1, adjacent wells, 50 µl each, 50°C 2 hours then 37°C overnight, indicator Micrococcus luteus, titre 800 AU/ml",-
same,Antimicrobial activity after enzyme treatment (in words),Proteinase K; treated with proteinase K,lost all antimicrobial activity
same,Inhibition zone after enzyme treatment,"Lyticase; Lyticase 1 mg.ml^-1, adjacent wells, 50 µl each, 50°C 2 hours then 37°C overnight, indicator Micrococcus luteus, titre 800 AU/ml",++++ (inhibition zone >20 mm)
same,Antimicrobial activity after enzyme treatment (in words),Lyticase; treated with lyticase,remained active
same,Inhibition zone after enzyme treatment,"Catalase; Catalase 1 mg.ml^-1, adjacent wells, 50 µl each, 50°C 2 hours then 37°C overnight, indicator Micrococcus luteus, titre 800 AU/ml",++++ (inhibition zone >20 mm)
same,Antimicrobial activity after enzyme treatment (in words),Catalase; treated with catalase,remained active
same,Inhibition zone after detergent / chemical treatment,Micrococcus luteus [14]; EDTA 1% (w/v),++++ (inhibition zone >20 mm)
same,Inhibition zone after detergent / chemical treatment,Micrococcus luteus [14]; NaCl 1% (w/v),++++ (inhibition zone >20 mm)
same,Inhibition zone after detergent / chemical treatment,Micrococcus luteus [14]; SDS 1% (w/v),++++ (inhibition zone >20 mm)
same,Inhibition zone after detergent / chemical treatment,Micrococcus luteus [14]; Tritone X100 1% (w/v),++ (inhibition zone < 20 mm)
same,Inhibition zone after detergent / chemical treatment,Micrococcus luteus [14]; Tween 20 1% (w/v),++++ (inhibition zone >20 mm)
same,Inhibition zone after detergent / chemical treatment,Micrococcus luteus [14]; Tween 80 1% (w/v),++++ (inhibition zone >20 mm)
same,Inhibition zone after detergent / chemical treatment,Micrococcus luteus [14]; Urea 1% (w/v),++++ (inhibition zone >20 mm)
same,Inhibition zone after enzyme treatment,"Peptidase; Peptidase 1 mg.ml^-1, adjacent wells, 50 µl each, 50°C 2 hours then 37°C overnight, indicator Micrococcus luteus, titre 800 AU/ml",-
same,Antimicrobial activity after enzyme treatment (in words),Peptidase; treated with peptidase,lost all antimicrobial activity
"Nisin: pore forming lantibiotic (Sigma), produced by Lactococcus lactis (ITSISLCTPGCKTGALMGCNMKTATCHCSIHVSK; not fully specified; Lantibiotic nisin-A; UniProt P13068 24-57, looked up) [reference compound]",Preparation induces inhibitor production in NU10,[1],No
same,Preparation induces inhibitor production in YU10,[2],No
same,Preparation induces inhibitor production in K12,S. salivarius strain K12,No
same,Preparation induces inhibitor production in ATCC11454,[3],Yes
same,"Propidium iodide uptake, geometric mean fluorescence intensity (MFI)","[11]; 20 µg/ml, triplicate",large increase
